Experimental data reported in patent US9730940B2, “Purine inhibitors of human phosphatidylinositol 3-kinase delta” (priority 2012, dated 2017).

The compounds below were run against PI3K-alpha (Homo sapiens (Human), UniProt P42336) (assay: HTRF PI3K biochemical assay, alpha isoform). Details: ratio PI3K-alpha IC50 value/PI3K-delta IC50 value.
PI3K-alpha, sequence (P42336 whole entry, looked up, canonical isoform): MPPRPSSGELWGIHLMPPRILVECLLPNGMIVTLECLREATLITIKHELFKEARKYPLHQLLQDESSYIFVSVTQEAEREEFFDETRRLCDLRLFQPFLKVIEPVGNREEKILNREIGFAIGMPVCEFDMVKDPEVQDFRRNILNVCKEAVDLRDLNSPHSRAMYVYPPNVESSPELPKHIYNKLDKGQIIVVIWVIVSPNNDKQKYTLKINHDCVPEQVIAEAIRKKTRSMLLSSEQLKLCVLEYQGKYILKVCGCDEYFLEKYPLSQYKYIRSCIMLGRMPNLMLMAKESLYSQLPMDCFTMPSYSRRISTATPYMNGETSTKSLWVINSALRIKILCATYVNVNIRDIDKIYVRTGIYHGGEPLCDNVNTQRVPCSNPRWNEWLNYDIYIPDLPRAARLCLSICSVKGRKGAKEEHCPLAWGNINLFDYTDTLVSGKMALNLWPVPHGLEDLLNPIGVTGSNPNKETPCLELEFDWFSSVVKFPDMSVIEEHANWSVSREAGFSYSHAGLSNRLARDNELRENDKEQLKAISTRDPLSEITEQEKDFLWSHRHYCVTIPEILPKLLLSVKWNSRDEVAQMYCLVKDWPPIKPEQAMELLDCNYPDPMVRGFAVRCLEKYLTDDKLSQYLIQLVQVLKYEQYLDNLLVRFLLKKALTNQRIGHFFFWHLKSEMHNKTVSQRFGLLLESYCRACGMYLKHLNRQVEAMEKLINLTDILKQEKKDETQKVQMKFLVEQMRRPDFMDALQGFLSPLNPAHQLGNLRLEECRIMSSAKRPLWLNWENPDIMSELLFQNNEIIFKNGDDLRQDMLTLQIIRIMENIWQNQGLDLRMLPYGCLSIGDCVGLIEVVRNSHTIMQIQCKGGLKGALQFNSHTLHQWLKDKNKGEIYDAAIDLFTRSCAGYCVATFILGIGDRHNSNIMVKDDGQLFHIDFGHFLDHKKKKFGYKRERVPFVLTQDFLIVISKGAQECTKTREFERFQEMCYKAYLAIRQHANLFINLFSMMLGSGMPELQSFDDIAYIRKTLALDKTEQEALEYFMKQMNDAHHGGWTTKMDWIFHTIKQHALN
PI3K-alpha, sequence (P27986 whole entry partner, looked up, canonical isoform): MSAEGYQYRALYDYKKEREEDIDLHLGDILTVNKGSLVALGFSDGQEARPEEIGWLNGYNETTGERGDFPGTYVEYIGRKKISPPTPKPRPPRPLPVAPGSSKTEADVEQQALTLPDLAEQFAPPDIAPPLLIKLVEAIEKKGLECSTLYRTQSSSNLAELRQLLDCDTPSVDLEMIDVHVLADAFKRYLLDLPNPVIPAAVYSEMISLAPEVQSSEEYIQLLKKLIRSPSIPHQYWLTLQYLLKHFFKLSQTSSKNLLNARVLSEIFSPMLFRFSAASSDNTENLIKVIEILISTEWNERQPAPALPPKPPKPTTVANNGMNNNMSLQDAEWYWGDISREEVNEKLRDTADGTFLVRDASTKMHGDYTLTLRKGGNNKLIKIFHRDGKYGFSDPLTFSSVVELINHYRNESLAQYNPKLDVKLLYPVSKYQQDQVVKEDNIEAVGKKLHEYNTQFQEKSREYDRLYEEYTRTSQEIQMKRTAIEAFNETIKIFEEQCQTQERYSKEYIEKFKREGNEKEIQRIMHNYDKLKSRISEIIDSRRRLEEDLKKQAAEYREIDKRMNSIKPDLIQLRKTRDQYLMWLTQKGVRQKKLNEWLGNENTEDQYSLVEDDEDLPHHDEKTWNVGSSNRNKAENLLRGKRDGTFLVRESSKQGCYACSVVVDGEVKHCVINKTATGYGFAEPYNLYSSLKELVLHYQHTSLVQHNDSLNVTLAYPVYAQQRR

Structure (SMILES) | Relative Selectivity versus PI3Kalpha
CCn1ncc(-c2nc3c(O[C@H]4CCN(C(=O)c5cccnc5)C4)ncnc3n2C)c1C [Compound 2-22, 8-(1-ethyl-5-methyl-1H-pyrazol-4-yl)-9-methyl-6-{[(3S)-1-(pyridin-3-ylcarbonyl)pyrrolidin-3-yl]oxy}-9H-purine] | >10
CCn1c(-c2cnc(OC)c(C)c2)nc2c(O[C@H]3CCN(C(=O)OC(C)(C)C)C3)ncnc21 [Compound 1-34, tert-butyl (3S)-3-{[9-ethyl-8-(6-methoxy-5-methylpyridin-3-yl)-9H-purin-6-yl]oxy}pyrrolidine-1-carboxylate] | >10
CCn1c(-c2cnn(-c3ccccc3)c2C)nc2c(O[C@H]3CCN(C(=O)C4CC4)C3)ncnc21 [Compound 3-23, 6-{[(3S)-1-(cyclopropylcarbonyl)pyrrolidin-3-yl]oxy}-9-ethyl-8-(5-methyl-1-phenyl-1H-pyrazol-4-yl)-9H-purine] | >10
CCn1ncc(-c2nc3c(O[C@H]4CCN(C(=O)CC#N)C4)ncnc3n2C)c1C [Compound 2-15, 3-[(3S)-3-{[8-(1-ethyl-5-methyl-1H-pyrazol-4-yl)-9-methyl-9H-purin-6-yl]oxy}pyrrolidin-1-yl]-3-oxopropanenitrile] | >10
CCCN1CC[C@H](Oc2ncnc3c2nc(-c2cnn(CC)c2C)n3C)C1 [Compound 6-5, (S)-8-(1-ethyl-5-methyl-1H-pyrazol-4-yl)-9-methyl-6-((1-propylpyrrolidin-3-yl)oxy)-9H-purine] | >10
CCn1ncc(-c2nc3c(O[C@H]4CCN(c5ncnc6sc(C)c(C)c56)C4)ncnc3n2C)c1C [Compound 7-12, 6-{[(3S)-1-(5,6-dimethylthieno[2,3-d]pyrimidin-4-yl)pyrrolidin-3-yl]oxy}-8-(1-ethyl-5-methyl-1H-pyrazol-4-yl)-9-methyl-9H-purine] | >10
CCn1ncc(-c2nc3c(O[C@H]4CCN(C(=O)c5nonc5C)C4)ncnc3n2C)c1C [Compound 2-35, 8-(1-ethyl-5-methyl-1H-pyrazol-4-yl)-9-methyl-6-({(3S)-1-[(4-methyl-1,2,5-oxadiazol-3-yl)carbonyl]pyrrolidin-3-yl}oxy)-9H-purine] | >10
CCn1ncc(-c2nc3c(O[C@H]4CCN(C(C)=O)C4)ncnc3n2C)c1C [Compound 2-90, (S)-1-(3-((8-(1-ethyl-5-methyl-1H-pyrazol-4-yl)-9-methyl-9H-purin-6-yl)oxy)pyrrolidin-1-yl)ethanone] | >10
CCn1ncc(-c2nc3c(O[C@H]4CCN(C(=O)C5CCCO5)C4)ncnc3n2C)c1C (stereo partly drawn) [Compound 2-17, 8-(1-ethyl-5-methyl-1H-pyrazol-4-yl)-9-methyl-6-{[(3S)-1-(tetrahydrofuran-2-ylcarbonyl)pyrrolidin-3-yl]oxy}-9H-purine] | >10
CCn1c(-c2cnc(C)nc2)nc2c(O[C@H]3CCN(C(=O)C4C(C)C4C)C3)ncnc21 (some centres unmarked) [Compound 2-128] | >10
CCn1c(-c2cnc(OC)c(F)c2)nc2c(O[C@H]3CCN(C(=O)c4ccn(C)n4)C3)ncnc21 [Compound 3-57, 9-ethyl-8-(5-fluoro-6-methoxypyridin-3-yl)-6-({(3S)-1-[(1-methyl-1H-pyrazol-3-yl)carbonyl]pyrrolidin-3-yl}oxy)-9H-purine] | >10
CCC(=O)N1CC[C@H](Oc2ncnc3c2nc(C2=CCOCC2)n3CC)C1 [Compound 14-1, 8-(3,6-dihydro-2H-pyran-4-yl)-9-ethyl-6-{[(3S)-1-propanoylpyrrolidin-3-yl]oxy}-9H-purine] | >10
CCC(=O)N1CC[C@H](Oc2ncnc3c2nc(-c2cnc(OC)c(C)c2)n3CC)C1 [Compound 2-89, (S)-1-(3-((9-ethyl-8-(6-methoxy-5-methylpyridin-3-yl)-9H-purin-6-yl)oxy)pyrrolidin-1-yl)propan-1-one] | >10
CCn1c(N2CCC(C)CC2)nc2c(O[C@H]3CCN(C(=O)OC(C)(C)C)C3)ncnc21 [Compound 13-4, tert-butyl (3S)-3-{[9-ethyl-8-(4-methylpiperidin-1-yl)-9H-purin-6-yl]oxy}pyrrolidine-1-carboxylate] | >10
CCn1c(-c2cnc(C)nc2)nc2c(O[C@H]3CCN(C(=O)C4CC4)C3)ncnc21 [Compound 2-107, 6-{[(3S)-1-(cyclopropylcarbonyl)pyrrolidin-3-yl]oxy}-9-ethyl-8-(2-methylpyrimidin-5-yl)-9H-purine] | >10
CCC(=O)N1CC[C@H](Oc2ncnc3c2nc(-c2ccc(OC)c(C)c2)n3C)C1 [Compound 3-36, 8-(4-methoxy-3-methylphenyl)-9-methyl-6-{[(3S)-1-propanoylpyrrolidin-3-yl]oxy}-9H-purine] | >10

Structure (SMILES) | Relative Selectivity versus PI3Kalpha
CCn1ncc(-c2nc3c(S[C@H]4CCN(c5ncnc6sccc56)C4)ncnc3n2C)c1C [Compound 10-13, (S)-4-(3-((8-(1-ethyl-5-methyl-1H-pyrazol-4-yl)-9-methyl-9H-purin-6-yl)thio)pyrrolidin-1-yl)thieno[2,3-d]pyrimidine] | >10
CCn1c(-c2cnc(C)nc2)nc2c(OC3CN(C(=O)C4CC4)CC3OC)ncnc21 (single isomer, unassigned) [Compound 2-115] | >10
CCn1ncc(-c2nc3c(O[C@H]4CCN(C(=O)c5cocn5)C4)ncnc3n2C)c1C [Compound 2-88, 8-(1-ethyl-5-methyl-1H-pyrazol-4-yl)-9-methyl-6-{[(3S)-1-(1,3-oxazol-4-ylcarbonyl)pyrrolidin-3-yl]oxy}-9H-purine] | >10
CCn1c(-c2cnc(C)nc2)nc2c(O[C@H]3CCN(c4cnccn4)C3)ncnc21 [Compound 7-26, 9-ethyl-8-(2-methylpyrimidin-5-yl)-6-{[(3S)-1-pyrazin-2-ylpyrrolidin-3-yl]oxy}-9H-purine] | >10
CCC(=O)N1CC[C@H](Oc2ncnc3c2nc(Oc2cccc(C)c2C)n3C)C1 [Compound 12-1, 8-(2,3-dimethylphenoxy)-9-methyl-6-{[(3S)-1-propanoylpyrrolidin-3-yl]oxy}-9H-purine] | 4
CCn1ncc(-c2nc3c(O[C@H]4CCN(c5ncnc6sccc56)C4)ncnc3n2C)c1C [Compound 7-13, 8-(1-ethyl-5-methyl-1H-pyrazol-4-yl)-9-methyl-6-{[(3S)-1-thieno[2,3-d]pyrimidin-4-ylpyrrolidin-3-yl]oxy}-9H-purine] | >10
CCn1c(-c2cnc(C)nc2)nc2c(O[C@H]3CCN(c4ccccc4)C3)ncnc21 [Compound 7-19, 9-ethyl-8-(2-methylpyrimidin-5-yl)-6-{[(3S)-1-phenylpyrrolidin-3-yl]oxy}-9H-purine] | >10
CCn1c(-c2cnc(C)nc2)nc2c(O[C@H]3CCN(C(=O)C4CC4C(F)F)C3)ncnc21 (single isomer, unassigned) [Compound 2-124, 6-{[(3S)-{(1S,2S)- or (1R,2R)-[2-(difluoromethyl)cyclopropyl]carbonyl}pyrrolidin-3-yl]oxy}-9-ethyl-8-(2-methylpyrimidin-5-yl)-9H-purine] | >10
CCn1c(-c2ccc(OC)nc2)nc2c(O[C@H]3CCN(C(=O)C4CCOCC4)C3)ncnc21 [Compound 3-52, 9-ethyl-8-(6-methoxypyridin-3-yl)-6-{[(3S)-1-(tetrahydro-2H-pyran-4-ylcarbonyl)pyrrolidin-3-yl]oxy}-9H-purine] | >10
CCCn1c(-c2cnc(C)nc2)nc2c(O[C@H]3CCN(C(=O)CC)C3)ncnc21 [Compound 3-19, 8-(2-methylpyrimidin-5-yl)-6-{[(3S)-1-propanoylpyrrolidin-3-yl]oxy}-9-propyl-9H-purine] | >10
CCn1ncc(-c2nc3c(CC4CCN(C(=O)OC(C)(C)C)C4)ncnc3n2C)c1C (centres unmarked) [Compound 11-1, tert-butyl 3-((8-(1-ethyl-5-methyl-1H-pyrazol-4-yl)-9-methyl-9H-purin-6-yl)methyl)pyrrolidine-1-carboxylate] | >10
CCn1ncc(-c2nc3c(OC4CCN(C(=O)c5ccccc5)C4)ncnc3n2C)c1C (centres unmarked) [Compound 2-1, 8-(1-ethyl-5-methyl-1H-pyrazol-4-yl)-9-methyl-6-{[1-(phenylcarbonyl)pyrrolidin-3-yl]oxy}-9H-purine] | >10
CCn1c(-c2cnc3[nH]ccc3c2)nc2c(O[C@H]3CCN(C(=O)C4CC4)C3)ncnc21 [Compound 3-25, 6-{[(3S)-1-(cyclopropylcarbonyl)pyrrolidin-3-yl]oxy}-9-ethyl-8-(1H-pyrrolo[2,3-b]pyridin-5-yl)-9H-purine] | >10
CCn1c(-c2cnc(C)nc2)nc2c(O[C@H]3CCN(C(=O)OCCN(C)C)C3)ncnc21 [Compound 1-49, 2-(dimethylamino)ethyl (3S)-3-{[9-ethyl-8-(2-methylpyrimidin-5-yl)-9H-purin-6-yl]oxy}pyrrolidine-1-carboxylate] | >10
CCn1ncc(-c2nc3c(O[C@H]4CCN(c5cc(-n6cccn6)ncn5)C4)ncnc3n2C)c1C [Compound 7-15, 8-(1-ethyl-5-methyl-1H-pyrazol-4-yl)-9-methyl-6-({(3S)-1-[6-(1H-pyrazol-1-yl)pyrimidin-4-yl]pyrrolidin-3-yl}oxy)-9H-purine] | >10
CCc1nc(C)c(C(=O)N2CC[C@H](Oc3ncnc4c3nc(-c3cnn(CC)c3C)n4C)C2)o1 [Compound 2-86, 6-({(3S)-1-[(2-ethyl-4-methyl-1,3-oxazol-5-yl)carbonyl]pyrrolidin-3-yl}oxy)-8-(1-ethyl-5-methyl-1H-pyrazol-4-yl)-9-methyl-9H-purine] | >10
